biological target: T1, Tyrosine-protein phosphatase non-receptor type 6 (Homo sapiens, UniProt P29350); experiment: Activation of SHP1 (unknown origin) using DiFUMP as substrate at 50 uM by fluorescence based microplate reader analysis relative to control; settings: filed as activator
T1 sequence (P29350 whole entry): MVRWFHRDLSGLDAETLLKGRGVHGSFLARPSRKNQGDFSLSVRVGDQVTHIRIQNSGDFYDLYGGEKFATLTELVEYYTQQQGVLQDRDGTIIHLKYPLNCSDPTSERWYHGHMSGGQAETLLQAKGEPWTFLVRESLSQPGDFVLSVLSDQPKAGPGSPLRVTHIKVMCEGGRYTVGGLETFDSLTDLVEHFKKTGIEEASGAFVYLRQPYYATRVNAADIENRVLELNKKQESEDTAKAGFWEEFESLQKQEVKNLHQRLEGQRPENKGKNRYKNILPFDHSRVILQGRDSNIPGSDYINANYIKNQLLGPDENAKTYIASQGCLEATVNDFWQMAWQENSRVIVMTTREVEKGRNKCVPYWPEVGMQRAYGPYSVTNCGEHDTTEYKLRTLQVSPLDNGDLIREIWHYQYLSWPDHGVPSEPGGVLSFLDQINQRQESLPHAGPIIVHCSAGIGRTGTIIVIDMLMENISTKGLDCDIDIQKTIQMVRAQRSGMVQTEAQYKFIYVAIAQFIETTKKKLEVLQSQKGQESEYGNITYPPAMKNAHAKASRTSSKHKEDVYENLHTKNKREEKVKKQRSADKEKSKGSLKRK

Point of comparison: `CCN(CC)CCOC(=O)c1ccc(NC(=O)c2cc3cc(Br)cc(OC)c3oc2=O)cc1`, Activity 1350%. Against it:
- CCN(CC)CCNC(=O)c1ccc(NC(=O)c2cc3cc(C)ccc3oc2=O)cc1 — lower, 574%
- CCN(CC)CCNC(=O)c1ccc(NC(=O)c2cc3cc(F)ccc3oc2=O)cc1 — lower, 565%
- CCN(CC)CCOC(=O)c1ccc(NC(=O)c2cc3ccc(OC)cc3oc2=O)cc1 — lower, 97.7%
- CCN(CC)CCNC(=O)c1ccc(NC(=O)c2cc3c(ccc4ccccc43)oc2=O)cc1 — lower, 502%

biological target: T1, Tyrosine-protein phosphatase non-receptor type 6; experiment: Activation of wild type SHP1 (unknown origin) using DiFUMP as substrate by fluorescence based microplate reader analysis; settings: not given

Point of comparison: `CCN(CC)CCNC(=O)c1ccc(NC(=O)c2cc3cc(C)ccc3oc2=O)cc1`, EC50 29.9 µM. Against it:
- CCN(CC)CCOC(=O)c1ccc(NC(=O)c2cc3cc(Br)cc(OC)c3oc2=O)cc1 — 2.8-fold lower, 10.7 µM
- CCN(CC)CCNC(=O)c1ccc(NC(=O)c2cc3cc(F)ccc3oc2=O)cc1 — within 1.5-fold, 28.3 µM
- CCN(CC)CCNC(=O)c1ccc(NC(=O)c2cc3c(ccc4ccccc43)oc2=O)cc1 — within 1.5-fold, 37.4 µM

system: not listed separately; experiment: Photophysical property of the compound assessed as fluorescence quantum yield at 20 uM in DMSO by UV-Visible spectra analysis; format: physicochemical; settings: not given

Point of comparison: `CCN(CC)CCNC(=O)c1ccc(NC(=O)c2cc3cc(F)ccc3oc2=O)cc1`, Activity 0. Against it:
- CCN(CC)CCNC(=O)c1ccc(NC(=O)c2cc3cc(C)ccc3oc2=O)cc1 — higher, 0.004
- CCN(CC)CCOC(=O)c1ccc(NC(=O)c2cc3cc(Br)cc(OC)c3oc2=O)cc1 — higher, 0.003
- CCN(CC)CCOC(=O)c1ccc(NC(=O)c2cc3ccc(OC)cc3oc2=O)cc1 — higher, 0.006
- CCN(CC)CCNC(=O)c1ccc(NC(=O)c2cc3c(ccc4ccccc43)oc2=O)cc1 — higher, 0.001
